BindingDB's records for doi:10.1021/jm070728r (University of Bari, 2007)
pIC50: −log10 of the molar value.

How the values were obtained:
[1] = molecular target: T1, Amine oxidase [flavin-containing] A (Rattus norvegicus, UniProt P21396); experiment: MAO Inhibition Assay; settings: pH 7.4; 37 °C
T1 sequence (P21396 whole entry): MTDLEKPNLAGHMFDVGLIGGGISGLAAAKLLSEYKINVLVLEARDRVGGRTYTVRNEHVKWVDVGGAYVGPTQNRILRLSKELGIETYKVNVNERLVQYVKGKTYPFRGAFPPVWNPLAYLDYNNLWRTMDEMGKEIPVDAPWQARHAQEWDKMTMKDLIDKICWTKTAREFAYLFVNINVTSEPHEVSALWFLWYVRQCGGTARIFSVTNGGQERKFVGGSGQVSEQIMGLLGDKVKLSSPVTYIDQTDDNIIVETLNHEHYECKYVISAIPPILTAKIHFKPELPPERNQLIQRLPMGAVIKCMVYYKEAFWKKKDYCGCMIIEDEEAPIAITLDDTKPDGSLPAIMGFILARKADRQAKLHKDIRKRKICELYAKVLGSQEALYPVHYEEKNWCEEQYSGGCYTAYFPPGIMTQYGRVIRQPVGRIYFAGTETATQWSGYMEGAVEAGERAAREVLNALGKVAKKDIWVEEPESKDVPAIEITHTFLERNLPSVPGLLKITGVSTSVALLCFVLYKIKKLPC
Procedure: (§1) A continuous spectrophotometric assay that monitors the rate of oxidation of the nonselective MAO substrate kynuramine into 4-hydroxyquinoline was used. clorgyline or selegiline was preincubated with the suspension for 5 min to measure MAO-B or MAO-A activity, respectively. […] IC50 values were determined and calculated from a hyperbolic equation. Each assay was performed in triplicate on four to six separate homogenates.

[2] = molecular target: T2, Amine oxidase [flavin-containing] B (Rattus norvegicus, UniProt P19643); experiment: MAO Inhibition Assay
T2 sequence (P19643 whole entry): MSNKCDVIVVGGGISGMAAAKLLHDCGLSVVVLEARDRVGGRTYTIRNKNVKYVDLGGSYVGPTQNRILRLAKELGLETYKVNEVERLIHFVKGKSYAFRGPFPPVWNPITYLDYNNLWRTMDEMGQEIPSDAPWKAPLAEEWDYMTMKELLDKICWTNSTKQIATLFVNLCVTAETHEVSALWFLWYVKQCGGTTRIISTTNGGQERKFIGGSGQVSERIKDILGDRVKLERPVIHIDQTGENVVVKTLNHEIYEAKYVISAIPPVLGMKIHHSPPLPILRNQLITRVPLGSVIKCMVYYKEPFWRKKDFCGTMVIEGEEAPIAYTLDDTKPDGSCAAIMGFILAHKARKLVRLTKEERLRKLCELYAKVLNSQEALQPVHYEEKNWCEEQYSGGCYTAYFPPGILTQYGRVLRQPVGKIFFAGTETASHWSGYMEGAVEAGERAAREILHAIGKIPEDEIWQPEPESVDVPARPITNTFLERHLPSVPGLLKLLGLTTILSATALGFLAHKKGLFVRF
Procedure: as §1

pIC50 [1] | pIC50 [2] | Compound
< 4.00 |  | c1ccc(-c2cc3c(nn2)-c2ccccc2C3)cc1
4.78 | 4.89 | c1ccc(-c2nc3cc4ccccc4c-3c[nH]2)cc1 [2-phenyl-9H-indeno[2,1-d]pyrimidine]
